Laboratory results taken from ChEMBL document CHEMBL3507680, “University of Dundee, Gates Library screen for HepG2 cell viability”.

Test: Human HepG2 cell viability assay in 384 well format
Type: toxicity, cell-based
Set-up: dose 125 nL, time 70.5 hour; cytotoxicity at 70.5 h: concentration not given beside the values
Conditions: HepG2 cells, read-out: Inhibition

SMILES | cytotoxicity at 70.5 h [%]
CC(C)Cc1noc(C2CCN(C(=O)c3cccs3)CC2)n1 | -0.0683
CNC(=O)c1ccc(-c2ccc(CNS(=O)(=O)N(C)C)cc2)nc1C | -0.408
Cn1c(CNCC2CCCN2c2cccnn2)nc2ccccc21 (configuration not stated) | -1.26
O=C(c1c[nH]c(=O)[nH]1)N1CCCC2(CCC(=O)N(C3CCCC3)C2)C1 (configuration not stated) | 1.3
CCN(CC)C(=O)CNS(=O)(=O)c1cc(Br)ccc1F | -5.2
O=S(=O)(c1cccs1)N1CCCn2cnc(CN3CCCC3)c2C1 | 23.3
CCOCc1ccccc1NC(=O)NCC(c1cnn(C)c1)N(C)C (configuration not stated) | -5.82
Cc1nn(C2CCS(=O)(=O)C2)c(O)c1Cc1ccccc1 (configuration not stated) | -16.5
Cc1ccc(CN2Cc3ccccc3O[C@]3(CC[C@H](CO)CC3)C2)s1 | 5.08
NC(=O)C1=NC2=NS(=O)(=O)c3ccccc3N2N1Cc1ccccc1Cl | -7.31
COc1ccc(CN2C[C@@H]3CC[C@H](C2)N(Cc2snnc2C)C3)cc1 | 49
Cc1ncc2c(n1)CN(CC(=O)Nc1c(C)nn(C)c1C)CC2 | -1.17
CN(c1ccc(Cl)c(C(=O)NCCCN2CCOCC2)c1)S(C)(=O)=O | 3.59
O=C(NC1CCCC1)[C@@H]1C[C@@H]2CCN(Cc3ccoc3)C[C@H]2O1 | -10
C=C1C(C)(C)[C@H]2CC[C@]1(C(=O)N1CCC(Cn3cc(CO)nn3)CC1)C2 | 26.1
Fc1cnc(N2CC[C@@H]3O[C@@H](COCc4cccnc4)CC[C@@H]32)nc1 | -6.15
OCCN1CCCC(c2nccnc2Oc2ccc(F)cc2)C1 (configuration not stated) | -2.84
COc1cc(F)ccc1C(C(=O)O)N1CCN(C2CCCCC2)CC1 (configuration not stated) | -4.9
COCC(=O)N1CCC2(CC1)CN(c1ccsc1)C(=O)CO2 | -8.62
CCC(CNC1CCN(C(=O)N(C)C)CC1)Oc1ccccc1C (configuration not stated) | 27.1
Cn1cc(C2COC3(CCN(C(=O)c4cccc(O)c4)CC3)C2)cn1 (configuration not stated) | -11.7
COCCOCC(C)NC(=O)COc1nn(C)c2nc(C)cc(C)c12 (configuration not stated) | -11
CSc1nc2ccsc2c(=O)n1CC(=O)N1CCCCC1C (configuration not stated) | -9.11

SMILES | cytotoxicity at 70.5 h [%]
O=C(c1nc(=O)[nH][nH]1)N1CCCN(CC2CCCCC2)CC1 | -7.64
Cc1ncsc1CN1C[C@@H]2COC[C@]2(C(=O)NCc2cccnc2)C1 | -14.8
CC(C)N(C(=O)Cn1nc2n(c1=O)CCCCC2)C1CCC1 | -9.98
CN(C)c1nc(N)nc(CN2CCCC(c3ccccc3)CC2)n1 (configuration not stated) | -3.13
O=C(c1ncccn1)N1C[C@H]2CCC[C@@]2(COCc2ccncc2)C1 | 9.21
CC(C)c1nnc2n1CCN(C(=O)c1ccc(S(C)(=O)=O)cc1)C2 | -5.36
CC(=O)N(Cc1ncc(C)o1)C1CCN(Cc2cccc(C#N)c2)C1 (configuration not stated) | -5.2
Cc1cscc1C(=O)NC1CC(=O)N(C(C)C)C1=O (configuration not stated) | -4.89
O=C(NC[C@@H]1CCCN1)c1cc(COc2cccc(C(F)(F)F)c2)[nH]n1 | -1.5
Cn1ccc(C(=O)N2CCN(Cc3ccccc3F)CC2)cc1=O | -0.663
Cc1nc(C)n(C2CCCN(C(=O)c3sccc3C3CC3)C2)n1 (configuration not stated) | 21.5
CN1CC(=O)N(C2CCNCC2)Cc2c(NCC(C)(C)C)ncnc21 | -9.73
c1cnn(Cc2cnc3n2CCN(CC2CCCCC2)C3)c1 | -6.48
CC(C)c1n[nH]c(C2CN(CC(=O)N(C)Cc3ccco3)CCO2)n1 (configuration not stated) | -3.93
CC(C)c1nnc(CN2CCCC(c3cc(C(N)=O)[nH]n3)C2)o1 (configuration not stated) | 26.9
COCC(=O)N1CCC2(C1)c1ccccc1S(=O)(=O)N2CC1CC1 (configuration not stated) | -8.07
Cc1noc(CN(C)Cc2ccc3c(c2)OCO3)n1 | 12.4
Cc1n[nH]c(C)c1NC(=O)CN1CCc2c(nc(C(C)C)n2C)C1 | -16.4
Cc1cc(C(=O)NCc2ccccn2)no1 | -6.09
CCNC(=O)C1CCN(c2cc(-c3ccccc3)nc3cc(C)nn23)C1 (configuration not stated) | -2.31
CC(C)C1CCCN1C(=O)Nc1ccc(=O)n(C)c1 (configuration not stated) | 15
COc1cccc(CNCc2ccnc(N3CCOCC3)c2)c1OC | -4.37
COc1cc(CCNC(=O)NCCC2CCCO2)ccc1C (configuration not stated) | -9.73

SMILES | cytotoxicity at 70.5 h [%]
O=C1N(Cc2ccccc2)C[C@H]2CN(Cc3ccccc3Cl)CCN12 | -1.14
COc1ccc(C2CCCCCN2S(C)(=O)=O)cc1 (configuration not stated) | 1.84
O=C(c1cc[nH]n1)N1CCc2ncnc(NCc3ccccn3)c2CC1 | -8.31
CCS(=O)(=O)NCCN(CCO)C1CCc2ccccc21 (configuration not stated) | -58.4
Cc1noc(C)c1CN1C[C@@H]2COC[C@@H](CC(=O)N3CCCO3)[C@@H]2C1 | -6.49
Cn1cc(C(=O)NCCc2csc(-c3ccccc3)n2)ccc1=O | -2.1
CC(NC(=O)NCCCn1cncn1)c1ccc2c(c1)OCCO2 (configuration not stated) | -7.07
COCC(O)CN(C)c1ccnc2cc(Br)ccc12 (configuration not stated) | -6.19
CN(C)c1ncccc1CNS(=O)(=O)c1cc(F)cc(F)c1 | -6.43
CN1CC2(CCN(Cc3cccnc3)CC2)c2cc(F)ccc21 | -3.7
CC(C)N1CCCC(c2cc(C(F)(F)F)nc3nccn23)C1 (configuration not stated) | -0.494
CCN(c1ccsc1C(=O)N1CCSCC1)S(=O)(=O)c1ccccc1 | 6.6
CC(=O)NCC1CCN(C(=O)NCCOc2ccc3c(c2)CCC3)CC1 | -11.5
CC(=O)N1[C@H](CN(C)C)C[C@@H]2CN(C(=O)c3cccn3C)CC[C@@H]21 | -11.1
CCC(Nc1ccc(Oc2ccccc2OC)cc1)C(N)=O (configuration not stated) | -4.77
COCc1ccc(CNc2cnn(C(C)(C)C)c(=O)c2Cl)cc1 | 19.8
Cc1nc(CNCC2CNc3ccnn3C2)cs1 (configuration not stated) | -7.55
CCOc1cc(CN(C)CCOC)ccc1OC(F)F | 12.4
CCn1ncnc1C(C)NC(=O)C1CCN(C2CCCCC2)CC1 (configuration not stated) | -7.1
Cc1ccc(N2CC[C@H]3O[C@@H](C(=O)NCc4ccco4)CC[C@H]32)nn1 | -4.81
Cc1nnc(CN(C)CCCOc2cccc(Cl)c2)o1 | 0.527
Cc1nc(C(C)Nc2nc3c(s2)c(C)nn3C)n[nH]1 (configuration not stated) | 15.8
CS(=O)(=O)NCCC(=O)NCc1cccnc1-n1cnc2ccccc21 | -12.6

SMILES | cytotoxicity at 70.5 h [%]
Cc1oc(CN(C)C(=O)c2ccc(Br)cc2)cc1C(=O)O | -8.74
Cc1cc(C(=O)N2CCC(c3nccn3CCCN(C)C)CC2)no1 | 0.885
CC(NC(=O)N1CCSC(C)(C)C1)c1noc(-c2ccccc2)n1 (configuration not stated) | -0.307
CCn1cc(S(=O)(=O)N2CCC3(CCCN(CC4CCC4)C3=O)C2)cn1 (configuration not stated) | -0.872
Cc1ccc(-c2ccccc2CC2CNCCNC2=O)c(C)c1 (configuration not stated) | 31.4
C[C@@H]1CN(C(=O)C2CCS(=O)(=O)CC2)C[C@]1(C)O | -8.15
COCCNC(=O)Cn1cc(NC(=O)c2cccc(Cl)c2Cl)cn1 | -1.6
O=C(NC1CC1)C1CN(Cc2ccc3c(c2)OCCO3)CCN1 (configuration not stated) | -11.1
Cn1ccc2ccc(C(=O)Nc3nc[nH]n3)cc21 | 13.7
Cc1cc(C)c2cc(C(=O)N3CCN(Cc4ccco4)CC3)[nH]c2c1 | -13.2
NC(=O)N1CCC2(CC1)CN(Cc1cccnc1)C(=O)CO2 | -7.6
CN(C)Cc1ccccc1Cn1cncc1-c1cnn(C)c1 | -3.97
Cc1n[nH]c(C)c1C1COCCN1C(=O)c1ccc2c(c1)CCO2 (configuration not stated) | -8
CCOc1cc(NC(=O)NCCn2cnnc2CC)ccc1C | -6.28
COCCN1CCCn2cnc(CNC3CCCC3)c2C1 | 0.0497
O=C(Cc1cccc(F)c1)NCCNCc1ccco1 | 19.4
COc1ccc(C)cc1CN(Cc1nc(C)c(C)o1)C1CCN(C)C1 (configuration not stated) | 3.17
Cc1cc(F)cc(S(=O)(=O)NC(=O)CCc2cncc(F)c2)c1 | -4.33
O[C@@H]1Cc2ccccc2[C@@H]1Nc1ncccc1F | -9.59
OC1(CNCCc2nc3c(s2)CCCC3)CCNC1 (configuration not stated) | -2.83
O=C(COc1ccc(Cl)cc1)NCc1nncn1C1CC1 | -14.1
FC(F)Oc1ccc(CNCc2cc(Cl)c3c(c2)OCO3)cc1 | -5.5
c1ccc(-c2cc(CN3CCC(c4ccn[nH]4)CC3)on2)cc1 | -7.56

SMILES | cytotoxicity at 70.5 h [%]
Cn1cc(Cl)c(C(=O)N2CCCN(C3Cc4ccccc4C3)CC2)n1 | 47.8
CN1CCC(c2cccc(-c3ccc(C(=O)O)cc3)n2)CC1 | -2.41
COCC(=O)N1CCC2(CC(C(=O)NCc3cccnc3)=NO2)C1 (configuration not stated) | -5.23
O=C(Cn1cccn1)N1CCC(Oc2ccc(C(F)(F)F)cn2)CC1 | -0.904
CC(=O)N1CCC(c2cncc(N3CCCC(O)C3)n2)CC1 (configuration not stated) | -4.12
Cc1ccc2nnc(C(=O)NCC3CCCC3)nc2c1 | -0.847
O=C(NCCn1ccnc1)NCc1ccc(N2CCCCCC2)nc1 | -14.2
CC(C)S(=O)(=O)CCN1CCc2c(ncn2C2CC2)C1 | 3.39
O=C1CN(C(=O)CC2c3ccccc3CCc3ccccc32)CCN1 | 2.75
NC(=O)c1csc(N2CCN(Cc3cccc4nsnc34)CC2)n1 | 15.7
O=C(CN1CCCS1(=O)=O)NCCOc1ccc2c(c1)CCC2 | 5.58
COc1ncccc1CNC(=O)C1=NN(c2ccccc2)C(=O)CN1 | 0.82
O=C(O)c1ccc(Cc2cccc(F)c2)nc1 | -3.84
O=C(CC1CCc2ccccc21)NCCSc1cnn[nH]1 (configuration not stated) | -9.43
CC1=C[C@@H](CN2CCCC2)[C@H](C(C)C)C[C@H]1Cc1nnc(C)o1 | -4.38
O=C(CNc1ccc(OC2CCOC2)cc1)NCc1cccs1 (configuration not stated) | -18.3
CCc1nc(C2CCCN2C(=O)c2ccc(=O)n(CC)n2)no1 (configuration not stated) | 4.08
CN(C(=O)Nc1nncs1)C1CCN(c2ccccc2Cl)C1=O (configuration not stated) | -21.1
O=S1(=O)CCC(n2nc(COc3ccccc3)nc2-c2cnccn2)C1 (configuration not stated) | -1.94
Cc1nc2c(c(NCCc3nc4c(s3)CCCC4)n1)CCNCC2 | -9.11
